We go through 37 molecules from ChEMBL document CHEMBL5120900, “Structure-Based Discovery of a Series of NSD2-PWWP1 Inhibitors” (J Med Chem, 2022).

A value given as a limit tells only on which side of the number the result lay.

The target of one assay is T1, Histone-lysine N-methyltransferase NSD3 (Homo sapiens, UniProt Q9BZ95).
T1 sequence (Q9BZ95 whole entry): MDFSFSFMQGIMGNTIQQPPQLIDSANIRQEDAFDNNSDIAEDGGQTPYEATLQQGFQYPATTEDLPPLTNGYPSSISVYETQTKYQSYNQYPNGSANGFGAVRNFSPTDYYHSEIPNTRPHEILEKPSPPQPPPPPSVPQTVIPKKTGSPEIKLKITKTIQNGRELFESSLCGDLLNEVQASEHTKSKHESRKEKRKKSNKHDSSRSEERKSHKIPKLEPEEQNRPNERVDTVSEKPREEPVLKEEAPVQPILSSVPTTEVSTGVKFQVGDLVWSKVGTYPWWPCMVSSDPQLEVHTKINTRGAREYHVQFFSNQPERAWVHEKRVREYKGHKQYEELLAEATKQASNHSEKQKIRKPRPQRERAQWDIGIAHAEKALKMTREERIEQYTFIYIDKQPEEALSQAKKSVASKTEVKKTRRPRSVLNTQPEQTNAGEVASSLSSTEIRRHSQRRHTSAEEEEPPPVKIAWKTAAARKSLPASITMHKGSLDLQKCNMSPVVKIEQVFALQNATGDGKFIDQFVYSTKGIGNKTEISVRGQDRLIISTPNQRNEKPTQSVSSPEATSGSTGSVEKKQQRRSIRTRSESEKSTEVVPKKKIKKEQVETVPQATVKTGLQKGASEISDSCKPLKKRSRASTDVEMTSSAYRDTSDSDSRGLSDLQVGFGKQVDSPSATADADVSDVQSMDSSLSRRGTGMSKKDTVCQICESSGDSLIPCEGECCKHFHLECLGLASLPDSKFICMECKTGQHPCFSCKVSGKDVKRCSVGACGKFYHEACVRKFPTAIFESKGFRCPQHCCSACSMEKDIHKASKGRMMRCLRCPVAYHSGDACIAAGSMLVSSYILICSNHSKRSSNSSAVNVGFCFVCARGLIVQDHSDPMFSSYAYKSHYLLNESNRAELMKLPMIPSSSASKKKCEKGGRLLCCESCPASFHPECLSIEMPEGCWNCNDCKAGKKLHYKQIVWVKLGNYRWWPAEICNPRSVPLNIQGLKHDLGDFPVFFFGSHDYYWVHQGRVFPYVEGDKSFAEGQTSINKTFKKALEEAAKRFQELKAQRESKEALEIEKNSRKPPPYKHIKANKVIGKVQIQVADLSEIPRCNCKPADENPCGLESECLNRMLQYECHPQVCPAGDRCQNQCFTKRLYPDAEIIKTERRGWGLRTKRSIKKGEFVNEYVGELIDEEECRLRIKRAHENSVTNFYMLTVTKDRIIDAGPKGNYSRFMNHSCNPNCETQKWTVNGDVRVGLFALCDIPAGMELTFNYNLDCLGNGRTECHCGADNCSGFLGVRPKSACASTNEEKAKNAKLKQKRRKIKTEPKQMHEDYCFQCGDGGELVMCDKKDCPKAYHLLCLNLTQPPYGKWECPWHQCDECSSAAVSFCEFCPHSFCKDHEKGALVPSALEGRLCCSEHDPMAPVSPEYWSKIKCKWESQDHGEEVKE
The assay can be described thus: Binding affinity to NSD3 (unknown origin) assessed as dissociation constant.
In general, Kd refers to a measure of binding affinity in units of concentration. Consider `N#Cc1ccc(C(=O)N(Cc2cccs2)C2CC2)cc1`, for which the Kd worked out at 0.091 µM.

In the next assay the target is T2, Histone-lysine N-methyltransferase NSD2 (Homo sapiens, UniProt O96028).
T2 sequence (O96028 whole entry): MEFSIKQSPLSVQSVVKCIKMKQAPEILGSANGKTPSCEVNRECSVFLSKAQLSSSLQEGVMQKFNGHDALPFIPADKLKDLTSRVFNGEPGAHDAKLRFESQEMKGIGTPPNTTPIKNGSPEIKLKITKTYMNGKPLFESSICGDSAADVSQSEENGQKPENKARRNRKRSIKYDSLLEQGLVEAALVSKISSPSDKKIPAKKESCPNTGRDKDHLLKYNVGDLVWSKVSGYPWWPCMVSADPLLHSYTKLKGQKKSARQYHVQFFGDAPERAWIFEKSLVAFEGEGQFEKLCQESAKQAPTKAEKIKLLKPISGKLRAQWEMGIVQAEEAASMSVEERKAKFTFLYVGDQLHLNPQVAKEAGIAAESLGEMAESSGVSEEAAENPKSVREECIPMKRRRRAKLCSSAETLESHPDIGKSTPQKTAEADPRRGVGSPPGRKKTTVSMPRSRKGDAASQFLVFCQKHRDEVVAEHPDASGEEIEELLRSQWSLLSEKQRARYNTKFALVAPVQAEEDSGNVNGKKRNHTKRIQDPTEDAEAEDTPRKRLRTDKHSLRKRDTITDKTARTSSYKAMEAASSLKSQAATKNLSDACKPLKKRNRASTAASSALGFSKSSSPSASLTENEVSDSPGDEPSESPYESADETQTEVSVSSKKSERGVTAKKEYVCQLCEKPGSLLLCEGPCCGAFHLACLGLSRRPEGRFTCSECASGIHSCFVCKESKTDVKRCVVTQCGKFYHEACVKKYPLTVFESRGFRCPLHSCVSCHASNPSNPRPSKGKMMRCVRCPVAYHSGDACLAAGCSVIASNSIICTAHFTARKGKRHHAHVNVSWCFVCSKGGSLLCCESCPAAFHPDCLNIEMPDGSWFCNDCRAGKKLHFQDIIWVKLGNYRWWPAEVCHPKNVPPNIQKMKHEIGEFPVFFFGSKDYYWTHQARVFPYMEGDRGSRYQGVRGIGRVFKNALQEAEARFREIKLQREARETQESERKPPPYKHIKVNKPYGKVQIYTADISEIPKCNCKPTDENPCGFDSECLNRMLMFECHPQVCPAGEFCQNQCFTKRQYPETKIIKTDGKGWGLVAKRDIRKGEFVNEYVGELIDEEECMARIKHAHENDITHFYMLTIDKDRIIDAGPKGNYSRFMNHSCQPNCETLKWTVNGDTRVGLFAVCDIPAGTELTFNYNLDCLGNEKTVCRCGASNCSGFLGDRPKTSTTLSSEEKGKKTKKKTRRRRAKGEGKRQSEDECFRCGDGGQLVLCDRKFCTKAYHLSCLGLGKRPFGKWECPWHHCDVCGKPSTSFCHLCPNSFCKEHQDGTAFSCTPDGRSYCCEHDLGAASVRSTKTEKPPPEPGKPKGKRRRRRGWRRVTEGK
The assay can be described thus: Binding affinity to N-terminal His6/Sumo-tagged NSD2 PWWP1 domain (211 to 350 residues) (unknown origin) expressed in Escherichia coli BL21 (DE3) using ATKAARKSAPATGGV-Lys (me)2-KPHRYRPG polypeptide as substrate incubated for 3 hrs by HTRF assay. For orientation: TR-FRET usually uses a lanthanide donor and a delayed reading to cut background.
A word on the IC50: it is the concentration that gives 50% inhibition. The molecule `Cc1cc(CN2CCCCC2)cc(C)c1-c1ncn(C)c1-c1ccc(C#N)c2ccccc12` came in with an IC50 of 1.49 µM.

`CCNCc1cc(C)c(-c2ncn(C)c2-c2ccc(C#N)c3ccccc23)c(C)c1` gave an IC50 of 0.7 µM.

`Cc1cc(CN2CCCC2)cc(C)c1-c1ncn(C)c1-c1ccc(C#N)c2ccccc12` yielded an IC50 of 2.07 µM.

In turn, `COc1cc(CN)ccc1-c1ncn(C)c1-c1ccc(C#N)cc1` registered an IC50 of 12 µM.

Regarding `Cc1cc(CNC(=O)OC(C)(C)C)cc(C)c1-c1ncn(C)c1-c1ccc(C#N)c2ccccc12`, the IC50 was determined as 1.67 µM.

Consider `Cc1cc(CN2CCOCC2)cc(C)c1-c1ncn(C)c1-c1ccc(C#N)c2ccccc12`, for which the IC50 stood at 3.84 µM.

As for `Cc1cc(CNC(C)(C)C)cc(C)c1-c1ncn(C)c1-c1ccc(C#N)c2ccccc12`, the IC50 stood at 0.64 µM.

`CCC(O)c1cc(C)c(-c2ncn(C)c2-c2ccc(C#N)c3ccccc23)c(C)c1` (configuration not stated): the 50% inhibitory concentration (IC50) was greater than 24 µM.

In turn, `Cc1cc(CN)cc(C)c1-c1ncn(C)c1-c1ccc(C#N)cc1` came in with an IC50 of 0.57 µM.

Regarding `Cc1cc(CNC2CC2)cc(C)c1-c1ncn(C)c1-c1ccc(C#N)c2ccccc12`, the IC50 was found to be 0.43 µM.

In turn, `Cc1cc(CNCCN)cc(C)c1-c1ncn(C)c1-c1ccc(C#N)c2ccccc12` returned a half-inhibitory concentration (IC50) of 0.62 µM.

In turn, `Cn1cnc(-c2ccc(CN)cc2F)c1-c1ccc(C#N)cc1` registered an IC50 of 11.2 µM.

Molecule `Cc1cc(CN)cc(C)c1-c1ncn(C)c1-c1ccc(C#N)c(F)c1` registered a concentration for half-maximal inhibition (IC50) of 2.91 µM.

`Cc1cc(CN)cc(C)c1-c1ncn(C)c1-c1ccc(C#N)c2ncccc12` yielded a half-maximal inhibitory concentration (IC50) of 1.58 µM.

For `Cn1cnc(-c2ccc(CN)cc2)c1-c1ccc(C#N)cc1`, the half-maximal inhibitory concentration (IC50) was 13.9 µM.

For `Cc1cc(NC(=O)OC(C)(C)C)cc(C)c1-c1ncn(C)c1-c1ccc(C#N)c2ccccc12`, the IC50 is greater than 25 µM.

`Cc1cc(CN2CCN(C(=O)OC(C)(C)C)CC2)cc(C)c1-c1ncn(C)c1-c1ccc(C#N)c2ccccc12` returned an IC50 of 8.07 µM.

Consider `Cn1cnc(-c2ccc(CN)cc2C(F)(F)F)c1-c1ccc(C#N)cc1`, for which the IC50 came to 6.01 µM.

In the case of `CCC(=O)c1cc(C)c(-c2ncn(C)c2-c2ccc(C#N)c3ccccc23)c(C)c1`, the half-maximal inhibitory concentration (IC50) is greater than 22 µM.

`Cc1cc(CN)cc(C)c1-c1ncn(C)c1-c1ccc(C#N)c2ccccc12` gave an IC50 of 0.52 µM.

In the case of `Cc1cc(C#N)cc(C)c1-c1ncn(C)c1-c1ccc(C#N)c2ccccc12`, the half-inhibitory concentration (IC50) is greater than 20 µM.

Consider `Cc1cc(CN2CCC(O)C2)cc(C)c1-c1ncn(C)c1-c1ccc(C#N)c2ccccc12` (configuration not stated), for which the IC50 is 0.52 µM.

Take `COc1cc(CN)cc(OC)c1-c1ncn(C)c1-c1ccc(C#N)cc1`: the 50% inhibitory concentration (IC50) was found to be 4.44 µM.

Consider `Cc1cc(CO)cc(C)c1-c1ncn(C)c1-c1ccc(C#N)c2ccccc12`, for which the IC50 came to 13.8 µM.

In turn, `Cc1cc(CN)cc(C)c1-c1ncn(C)c1-c1ccc(C#N)c(C(F)(F)F)c1` yielded an IC50 of 15.4 µM.

`Cc1cc(CN)cc(C)c1-c1ncn(C)c1-c1ccc(C#N)c(N)c1` registered a 50% inhibitory concentration (IC50) of 8.78 µM.

As to `CNc1cc(-c2c(-c3c(C)cc(CN)cc3C)ncn2C)ccc1C#N`, the IC50 is greater than 20 µM.

`COc1cc(-c2c(-c3c(C)cc(CN)cc3C)ncn2C)ccc1C#N` showed a half-inhibitory concentration (IC50) of 10.9 µM.

The molecule `Cc1cc(CN2CCC(NC(=O)OC(C)(C)C)CC2)cc(C)c1-c1ncn(C)c1-c1ccc(C#N)c2ccccc12` came in with a half-inhibitory concentration (IC50) of 8.05 µM.

Regarding `Cc1cc(C=O)cc(C)c1-c1ncn(C)c1-c1ccc(C#N)c2ccccc12`, the concentration for half-maximal inhibition (IC50) was greater than 21 µM.

For `Cn1cnc(-c2ccc(CN)cc2Cl)c1-c1ccc(C#N)cc1`, the IC50 came to 6.11 µM.

As for `Cc1cc(CN2CCC(N(C)C)C2)cc(C)c1-c1ncn(C)c1-c1ccc(C#N)c2ccccc12` (configuration not stated), the 50% inhibitory concentration (IC50) worked out at 2 µM.

For the molecule `Cc1cc(N)cc(C)c1-c1ncn(C)c1-c1ccc(C#N)c2ccccc12`, the IC50 turned out to be 10.6 µM.

In turn, `Cc1cc(CN)cc(C)c1-c1ncn(C)c1-c1ccc(C#N)c(Cl)c1` had an IC50 of 5.03 µM.

Consider `Cc1cc(CN)ccc1-c1ncn(C)c1-c1ccc(C#N)cc1`, for which the IC50 came out at 4.68 µM.

Consider `Cc1cc(CN2CCNCC2)cc(C)c1-c1ncn(C)c1-c1ccc(C#N)c2ccccc12`, for which the IC50 stood at 1.89 µM.
